Measured values reported in the supplement of paper PMC10307832.

Experiments:
Test in all cases: relative viability (nuclei count vs DMSO), 5 days (fraction); higher = more cells survive
NCI-H727 = test system: NCI-H727
Method in brief: (§1)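 Cells from lung cancer lines were seeded into 1536-well plates and, one day later, dosed by pin tool. Treatments were either a single drug or a fixed dose of an anchor drug with five library-drug doses (not always all listed) in √10 steps. After 5 days, nuclei were stained in a one-step fixation (final 0.05% Triton X-100, 1% formaldehyde, 1 ug/ml Hoechst) and counted on 4× images, and relative viability is the treated-to-vehicle nuclei ratio, as the median of duplicate plates.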

BEN = test system: BEN
Method in brief: as §1

NCI-H647 = test system: NCI-H647
Method in brief: as §1

NCI-H2405 = test system: NCI-H2405
Method in brief: as §1

HCC-827 = test system: HCC-827
Method in brief: as §1

CAL-12T = test system: CAL-12T
Method in brief: as §1

201T = test system: 201T
Method in brief: as §1

RERF-LC-KJ = test system: RERF-LC-KJ
Method in brief: as §1

LCLC-97TM1 = test system: LCLC-97TM1
Method in brief: as §1

NCI-H1944 = test system: NCI-H1944
Method in brief: as §1

NCI-H1437 = test system: NCI-H1437
Method in brief: as §1

NCI-H322M = test system: NCI-H322M
Method in brief: as §1

LCLC-103H = test system: LCLC-103H
Method in brief: as §1

NCI-H2228 = test system: NCI-H2228
Method in brief: as §1

LXF-289 = test system: LXF-289
Method in brief: as §1

NCI-H3122 = test system: NCI-H3122
Method in brief: as §1

HCC-44 = test system: HCC-44
Method in brief: as §1

NCI-H1650 = test system: NCI-H1650
Method in brief: as §1

HOP-62 = test system: HOP-62
Method in brief: as §1

NCI-H2087 = test system: NCI-H2087
Method in brief: as §1

SK-LU-1 = test system: SK-LU-1
Method in brief: as §1

For `CC1(C)CCC(c2ccc(Cl)cc2)=C(CN2CCN(c3ccc(C(=O)NS(=O)(=O)c4ccc(N[C@H](CCN5CCOCC5)CSc5ccccc5)c(S(=O)(=O)C(F)(F)F)c4)cc3)CC2)C1` [Navitoclax] + C[C@@H](Oc1cc(-c2cnn(C3CCNCC3)c2)cnc1N)c1c(Cl)ccc(F)c1Cl [Crizotinib] (partner 1 µM), the relative viability (NCI-H727; first compound 0.005 µM) was 0.692, the relative viability (NCI-H727; first compound 0.01581 µM) was 1.11 and the relative viability (NCI-H727; first compound 0.1581 µM) was 0.797. It also gave a relative viability (NCI-H727; first compound 0.5 µM) of 0.73, a relative viability (BEN; first compound 0.005 µM) of 0.878 and a relative viability (BEN; first compound 0.01581 µM) of 0.897. The relative viability (BEN; first compound 0.05 µM) was 0.936, the relative viability (BEN; first compound 0.1581 µM) was 0.944 and the relative viability (BEN; first compound 0.5 µM) was 0.662. It also gave a relative viability (NCI-H647; first compound 0.005 µM) of 1.16, a relative viability (NCI-H647; first compound 0.01581 µM) of 1.18 and a relative viability (NCI-H647; first compound 0.05 µM) of 1.42. For the same molecule, the relative viability (NCI-H647; first compound 0.1581 µM) was 0.874, the relative viability (NCI-H647; first compound 0.5 µM) was 0.896 and the relative viability (NCI-H2405; first compound 0.005 µM) was 0.788. For the same molecule, the relative viability (NCI-H2405; first compound 0.01581 µM) was 0.948, the relative viability (NCI-H2405; first compound 0.05 µM) was 0.824 and the relative viability (NCI-H2405; first compound 0.1581 µM) was 0.838. The relative viability (NCI-H2405; first compound 0.5 µM) was 0.794, the relative viability (HCC-827; first compound 0.005 µM) was 0.96 and the relative viability (HCC-827; first compound 0.01581 µM) was 0.962. It also gave a relative viability (HCC-827; first compound 0.05 µM) of 0.966, a relative viability (HCC-827; first compound 0.1581 µM) of 0.958 and a relative viability (HCC-827; first compound 0.5 µM) of 0.935. The relative viability (CAL-12T; first compound 0.005 µM) was 0.589, the relative viability (CAL-12T; first compound 0.01581 µM) was 0.653 and the relative viability (CAL-12T; first compound 0.05 µM) was 0.725. For the same molecule, the relative viability (CAL-12T; first compound 0.1581 µM) was 0.744, the relative viability (CAL-12T; first compound 0.5 µM) was 0.536 and the relative viability (201T; first compound 0.005 µM) was 1.03. The relative viability (201T; first compound 0.01581 µM) was 1.05, the relative viability (201T; first compound 0.05 µM) was 0.975 and the relative viability (201T; first compound 0.1581 µM) was 1.04. It also gave a relative viability (201T; first compound 0.5 µM) of 1.03, a relative viability (RERF-LC-KJ; first compound 0.005 µM) of 0.825 and a relative viability (RERF-LC-KJ; first compound 0.01581 µM) of 0.712. It also gave a relative viability (RERF-LC-KJ; first compound 0.05 µM) of 0.789, a relative viability (RERF-LC-KJ; first compound 0.1581 µM) of 0.796 and a relative viability (RERF-LC-KJ; first compound 0.5 µM) of 0.833. For the same molecule, the relative viability (LCLC-97TM1; first compound 0.005 µM) was 0.358, the relative viability (LCLC-97TM1; first compound 0.01581 µM) was 0.337 and the relative viability (LCLC-97TM1; first compound 0.05 µM) was 0.294. It also gave a relative viability (LCLC-97TM1; first compound 0.1581 µM) of 0.333, a relative viability (LCLC-97TM1; first compound 0.5 µM) of 0.381 and a relative viability (NCI-H1944; first compound 0.005 µM) of 1.05. For the same molecule, the relative viability (NCI-H1944; first compound 0.01581 µM) was 1.13, the relative viability (NCI-H1944; first compound 0.05 µM) was 0.798 and the relative viability (NCI-H1944; first compound 0.1581 µM) was 1.14. For the same molecule, the relative viability (NCI-H1944; first compound 0.5 µM) was 1.03, the relative viability (NCI-H1437; first compound 0.005 µM) was 0.916 and the relative viability (NCI-H1437; first compound 0.01581 µM) was 0.93. For the same molecule, the relative viability (NCI-H1437; first compound 0.05 µM) was 0.892, the relative viability (NCI-H1437; first compound 0.1581 µM) was 0.961 and the relative viability (NCI-H1437; first compound 0.5 µM) was 0.873. It also gave a relative viability (NCI-H322M; first compound 0.005 µM) of 0.885, a relative viability (NCI-H322M; first compound 0.01581 µM) of 0.954 and a relative viability (NCI-H322M; first compound 0.05 µM) of 0.839. The relative viability (NCI-H322M; first compound 0.1581 µM) was 0.858, the relative viability (NCI-H322M; first compound 0.5 µM) was 0.92 and the relative viability (LCLC-103H; first compound 0.005 µM) was 1.05. For the same molecule, the relative viability (LCLC-103H; first compound 0.01581 µM) was 0.979, the relative viability (LCLC-103H; first compound 0.05 µM) was 0.951 and the relative viability (LCLC-103H; first compound 0.1581 µM) was 1.12. The relative viability (LCLC-103H; first compound 0.5 µM) was 0.976, the relative viability (NCI-H2228; first compound 0.005 µM) was 0.633 and the relative viability (NCI-H2228; first compound 0.01581 µM) was 0.553. It also gave a relative viability (NCI-H2228; first compound 0.05 µM) of 0.573, a relative viability (NCI-H2228; first compound 0.1581 µM) of 0.454 and a relative viability (NCI-H2228; first compound 0.5 µM) of 0.52. For the same molecule, the relative viability (LXF-289; first compound 0.005 µM) was 0.736, the relative viability (LXF-289; first compound 0.01581 µM) was 0.836 and the relative viability (LXF-289; first compound 0.05 µM) was 0.787. The relative viability (LXF-289; first compound 0.1581 µM) was 0.797, the relative viability (LXF-289; first compound 0.5 µM) was 0.794 and the relative viability (NCI-H3122; first compound 0.005 µM) was 0.254. It also gave a relative viability (NCI-H3122; first compound 0.01581 µM) of 0.308, a relative viability (NCI-H3122; first compound 0.05 µM) of 0.244 and a relative viability (NCI-H3122; first compound 0.1581 µM) of 0.306. The relative viability (NCI-H3122; first compound 0.5 µM) was 0.292, the relative viability (HCC-44; first compound 0.005 µM) was 0.815 and the relative viability (HCC-44; first compound 0.01581 µM) was 0.835. The relative viability (HCC-44; first compound 0.05 µM) was 0.794, the relative viability (HCC-44; first compound 0.1581 µM) was 0.825 and the relative viability (HCC-44; first compound 0.5 µM) was 0.866. For the same molecule, the relative viability (NCI-H1650; first compound 0.005 µM) was 0.995, the relative viability (NCI-H1650; first compound 0.01581 µM) was 1.13 and the relative viability (NCI-H1650; first compound 0.05 µM) was 1.17. The relative viability (NCI-H1650; first compound 0.1581 µM) was 0.938, the relative viability (NCI-H1650; first compound 0.5 µM) was 0.667 and the relative viability (HOP-62; first compound 0.005 µM) was 0.965. For the same molecule, the relative viability (HOP-62; first compound 0.01581 µM) was 1.09, the relative viability (HOP-62; first compound 0.05 µM) was 0.926 and the relative viability (HOP-62; first compound 0.1581 µM) was 0.917. For the same molecule, the relative viability (HOP-62; first compound 0.5 µM) was 1.03, the relative viability (NCI-H2087; first compound 0.005 µM) was 0.911 and the relative viability (NCI-H2087; first compound 0.01581 µM) was 0.766. It also gave a relative viability (NCI-H2087; first compound 0.05 µM) of 0.873, a relative viability (NCI-H2087; first compound 0.1581 µM) of 0.892 and a relative viability (NCI-H2087; first compound 0.5 µM) of 0.976. For the same molecule, the relative viability (SK-LU-1; first compound 0.005 µM) was 0.846, the relative viability (SK-LU-1; first compound 0.01581 µM) was 0.975 and the relative viability (SK-LU-1; first compound 0.05 µM) was 1.14. The relative viability (SK-LU-1; first compound 0.1581 µM) was 0.894 and the relative viability (SK-LU-1; first compound 0.5 µM) was 0.834.
